In ChEMBL document CHEMBL4118044, “Manzamine Alkaloids from an Acanthostrongylophora sp. Sponge” (J Nat Prod, 2017):
≈ marks a conversion by molar mass, not a printed value.

Experiments:
Staphylococcus aureus = assay: Antibacterial activity against Staphylococcus aureus ATCC 6538p after 24 hrs by serial two fold dilution method; format: functional
[1] = biological target: Sodium/potassium-transporting ATPase; assay: Inhibition of KCl-stimulated Na+/K+-ATPase in human placental membrane vesicles measured for 60 secs by 3-O-methylfluorescein phosphate dye based fluorometric method; format: cell membranes, Placenta
Bacillus spizizenii = assay: Antibacterial activity against Bacillus subtilis ATCC 6633 after 24 hrs by serial two fold dilution method; format: functional; conditions: ATCC 6633, 24 h
A549 = assay: Cytotoxicity against human A549 cells by MTT assay; format: functional; conditions: read-out: LC50 (the source's name)
Escherichia coli = assay: Antibacterial activity against Escherichia coli ATCC 35270 after 24 hrs by serial two fold dilution method; format: functional; conditions: ATCC 35270, 24 h
Proteus hauseri = assay: Antibacterial activity against Proteus hauseri NBRC 3851 after 24 hrs by serial two fold dilution method; format: functional; conditions: NBRC 3851, 24 h
Salmonella typhimurium = assay: Antibacterial activity against Salmonella enterica ATCC 14028 after 24 hrs by serial two fold dilution method; format: functional, Salmonella enterica subsp. enterica serovar Typhimurium; conditions: ATCC 14028, 24 h
Sortase A = biological target: T1, Sortase A (Staphylococcus aureus, UniProt Q9S446); assay: Inhibition of Staphylococcus aureus ATCC 6538p SortA expressed in Escherichia coli using Dabcyl-QALPETGEE-Edans as substrate after 1 hr by fluorescence spectrophotometric method
T1 sequence (Q9S446 whole entry): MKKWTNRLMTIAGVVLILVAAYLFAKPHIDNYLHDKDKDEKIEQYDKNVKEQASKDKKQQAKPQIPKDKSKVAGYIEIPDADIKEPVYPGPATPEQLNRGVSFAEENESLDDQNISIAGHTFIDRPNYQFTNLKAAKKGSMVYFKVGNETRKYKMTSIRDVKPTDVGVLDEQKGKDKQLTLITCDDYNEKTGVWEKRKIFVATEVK

[2] = Inhibition of Magnaporthe grisea Guy 11 ICL; parameters: species or system Pyricularia grisea
K562 = assay: Cytotoxicity against human K562 cells by MTT assay; format: functional; conditions: read-out: LC50 (the source's name)
Kocuria rhizophila = assay: Antibacterial activity against Kocuria rhizophila NBRC 12708 after 24 hrs by serial two fold dilution method; format: functional; conditions: NBRC 12708, 24 h

Question: Which MIC (Staphylococcus aureus) does the source give for Cn1cncc1C(=O)c1nccc2c1[nH]c1ccccc12 here?
Answer: > 100 µg/mL

Question: What about the IC50 [1] of the same compound?
Answer: > 150 µM

Question: What about the MIC (Bacillus spizizenii) of the same compound?
Answer: 50 µg/mL (≈ 181 µM)

Question: And the CC50 (A549)?
Answer: 12 µM

Question: What about the MIC (Escherichia coli) of the same compound?
Answer: > 100 µg/mL

Question: What about the MIC (Proteus hauseri) of the same compound?
Answer: > 100 µg/mL

Question: What about the MIC (Salmonella typhimurium) of the same compound?
Answer: 25 µg/mL (≈ 90.5 µM)

Question: What about the IC50 (Sortase A) of the same compound?
Answer: > 150 µM

Question: What about the IC50 [2] of the same compound?
Answer: > 150 µM

Question: And the CC50 (K562)?
Answer: 13 µM

Question: And the MIC (Kocuria rhizophila)?
Answer: 25 µg/mL (≈ 90.5 µM)

Question: Which MIC (Staphylococcus aureus) does the source give for Cl.[O-][N+]1=C(C2=C[C@@]3(O)CC/C=C\CCCCN4CC[C@@H]2[C@]2(CC/C=C\CCCCN[C@H]23)C4)c2[nH]c3ccccc3c2CC1 here?
Answer: 32 µg/mL

Question: And the IC50 [1]?
Answer: 110 µM

Question: What about the MIC (Bacillus spizizenii) of the same compound?
Answer: 64 µg/mL

Question: What about the CC50 (A549) of the same compound?
Answer: 5.7 µM

Question: What about the MIC (Escherichia coli) of the same compound?
Answer: > 100 µg/mL

Question: And the MIC (Proteus hauseri)?
Answer: 32 µg/mL

Question: And the MIC (Salmonella typhimurium)?
Answer: > 100 µg/mL

Question: What about the IC50 (Sortase A) of the same compound?
Answer: > 150 µM

Question: And the IC50 [2]?
Answer: > 150 µM

Question: What about the CC50 (K562) of the same compound?
Answer: 9.5 µM

Question: What about the MIC (Kocuria rhizophila) of the same compound?
Answer: 64 µg/mL

Question: For Cn1cncc1C(=O)C1=NCCc2c1[nH]c1ccccc21, which MIC (Staphylococcus aureus) is on record?
Answer: 50 µg/mL (≈ 180 µM)

Question: And the IC50 [1]?
Answer: > 150 µM

Question: And the MIC (Bacillus spizizenii)?
Answer: 25 µg/mL (≈ 89.8 µM)

Question: And the CC50 (A549)?
Answer: 9.9 µM

Question: What about the MIC (Escherichia coli) of the same compound?
Answer: > 100 µg/mL

Question: And the MIC (Proteus hauseri)?
Answer: 50 µg/mL (≈ 180 µM)

Question: And the MIC (Salmonella typhimurium)?
Answer: 6.3 µg/mL (≈ 22.6 µM)

Question: And the IC50 (Sortase A)?
Answer: > 150 µM

Question: What about the IC50 [2] of the same compound?
Answer: 75 µM

Question: And the CC50 (K562)?
Answer: 9.2 µM

Question: And the MIC (Kocuria rhizophila)?
Answer: 25 µg/mL (≈ 89.8 µM)

Question: Which IC50 [2] does the source give for O=C(O)CC[N+](=O)[O-] here?
Answer: 19 µM

Question: What does the source list for COc1cccc2c1C(=O)c1c(O)c3c(c(O)c1C2=O)C[C@@](O)(C(=O)CO)C[C@@H]3O[C@H]1C[C@H](N)[C@H](O)[C@H](C)O1 [DOXORUBICIN]?
Answer: CC50 (A549): 0.92 µM; CC50 (K562): 1.1 µM

Question: With O[C@]12C=C(c3nccc4c3[nH]c3ccccc34)[C@@H]3CCN(CCCC/C=C\CC1)C[C@@]31C[C@@H]3/C=C\CCCCN3[C@H]12 [MANZAMINE A] as the compound, how does the MIC (Staphylococcus aureus) read?
Answer: > 100 µg/mL

Question: And the IC50 [1]?
Answer: > 150 µM

Question: And the MIC (Bacillus spizizenii)?
Answer: 50 µg/mL (≈ 91.1 µM)

Question: And the CC50 (A549)?
Answer: 8.3 µM

Question: And the MIC (Escherichia coli)?
Answer: > 100 µg/mL

Question: What about the MIC (Proteus hauseri) of the same compound?
Answer: > 100 µg/mL

Question: What about the MIC (Salmonella typhimurium) of the same compound?
Answer: 3.1 µg/mL (≈ 5.65 µM)

Question: What about the IC50 (Sortase A) of the same compound?
Answer: > 150 µM

Question: And the IC50 [2]?
Answer: 140 µM

Question: What about the CC50 (K562) of the same compound?
Answer: 11 µM

Question: And the MIC (Kocuria rhizophila)?
Answer: 50 µg/mL (≈ 91.1 µM)

Question: What does the source list for O[C@]12C=C(c3nccc4c3[nH]c3ccccc34)[C@@H]3CCN(CCCC/C=C\CC1)C[C@@]31C[C@@H]3C=C[C@H]4CCC[N@+]43[C@H]12.[Cl-]?
Answer: MIC (Staphylococcus aureus): 8 µg/mL; IC50 [1]: > 150 µM; MIC (Bacillus spizizenii): 32 µg/mL; CC50 (A549): 4.6 µM; MIC (Escherichia coli): 64 µg/mL; MIC (Proteus hauseri): 8 µg/mL; MIC (Salmonella typhimurium): 16 µg/mL; IC50 [2]: > 150 µM; CC50 (K562): 7.2 µM; MIC (Kocuria rhizophila): 16 µg/mL

Question: Which results are given for CC1(C)S[C@@H]2[C@H](NC(=O)[C@H](N)c3ccccc3)C(=O)N2[C@H]1C(=O)O [AMPICILLIN]?
Answer: MIC (Staphylococcus aureus): 0.39 µg/mL (≈ 1.12 µM); MIC (Bacillus spizizenii): 0.78 µg/mL (≈ 2.23 µM); MIC (Escherichia coli): 6.3 µg/mL (≈ 18 µM); MIC (Proteus hauseri): 1.6 µg/mL (≈ 4.58 µM); MIC (Salmonella typhimurium): 0.39 µg/mL (≈ 1.12 µM); MIC (Kocuria rhizophila): 0.39 µg/mL (≈ 1.12 µM)

Question: For O[C@H]1/C=C\[C@H]2C[C@]34CN5CCCC/C=C\CC[C@](O)(C=C(c6nccc7c6[nH]c6ccccc67)[C@@H]3CC5)[C@@H]4N2CCC1, which MIC (Staphylococcus aureus) is on record?
Answer: 25 µg/mL (≈ 44.3 µM)

Question: And the IC50 [1]?
Answer: > 150 µM

Question: And the MIC (Bacillus spizizenii)?
Answer: 6.3 µg/mL (≈ 11.2 µM)

Question: What about the CC50 (A549) of the same compound?
Answer: 5.8 µM

Question: And the MIC (Escherichia coli)?
Answer: > 100 µg/mL

Question: What about the MIC (Proteus hauseri) of the same compound?
Answer: 13 µg/mL (≈ 23 µM)

Question: What about the MIC (Salmonella typhimurium) of the same compound?
Answer: 1.6 µg/mL (≈ 2.83 µM)

Question: What about the IC50 (Sortase A) of the same compound?
Answer: > 150 µM

Question: What about the IC50 [2] of the same compound?
Answer: 140 µM

Question: What about the CC50 (K562) of the same compound?
Answer: 7.2 µM

Question: And the MIC (Kocuria rhizophila)?
Answer: 6.3 µg/mL (≈ 11.2 µM)

Question: With C1=C\CC[C@]23O[C@H]2[C@@H](c2nccc4c2[nH]c2ccccc24)[C@@H]2CCN(CCCC/1)C[C@@]21CCCCCCCCN[C@H]13 as the compound, how does the MIC (Staphylococcus aureus) read?
Answer: > 100 µg/mL

Question: What about the IC50 [1] of the same compound?
Answer: > 150 µM

Question: And the MIC (Bacillus spizizenii)?
Answer: 100 µg/mL (≈ 181 µM)

Question: And the CC50 (A549)?
Answer: 6.5 µM

Question: And the MIC (Escherichia coli)?
Answer: > 100 µg/mL

Question: What about the MIC (Proteus hauseri) of the same compound?
Answer: > 100 µg/mL

Question: What about the MIC (Salmonella typhimurium) of the same compound?
Answer: 50 µg/mL (≈ 90.4 µM)

Question: What about the IC50 (Sortase A) of the same compound?
Answer: > 150 µM

Question: And the IC50 [2]?
Answer: > 150 µM

Question: And the CC50 (K562)?
Answer: 9.6 µM

Question: And the MIC (Kocuria rhizophila)?
Answer: 100 µg/mL (≈ 181 µM)

Question: Which MIC (Staphylococcus aureus) does the source give for O[C@@H]1CC[C@@]23C[C@]45CN6CCCC/C=C\CC[C@](O)(C=C(c7nccc8c7[nH]c7ccccc78)[C@@H]4CC6)[C@@H]5N2CC[C@@H]1O[C@@]12CC[C@@H](O3)[C@@H](O)CCN1[C@@H]1[C@]3(CN4CCCC/C=C\CC[C@]1(O)C=C(c1nccc5c1[nH]c1ccccc15)[C@@H]3CC4)C2 here?
Answer: > 100 µg/mL

Question: What about the IC50 [1] of the same compound?
Answer: > 150 µM

Question: And the MIC (Bacillus spizizenii)?
Answer: 1.6 µg/mL (≈ 1.38 µM)

Question: What about the CC50 (A549) of the same compound?
Answer: 13 µM

Question: What about the MIC (Escherichia coli) of the same compound?
Answer: > 100 µg/mL

Question: What about the MIC (Proteus hauseri) of the same compound?
Answer: > 100 µg/mL

Question: And the MIC (Salmonella typhimurium)?
Answer: 0.78 µg/mL (≈ 0.672 µM)

Question: What about the IC50 (Sortase A) of the same compound?
Answer: > 150 µM

Question: And the IC50 [2]?
Answer: 27 µM

Question: And the CC50 (K562)?
Answer: 12 µM

Question: What about the MIC (Kocuria rhizophila) of the same compound?
Answer: 1.6 µg/mL (≈ 1.38 µM)

Question: For O[C@@H]1CCCN2[C@@H](CC1)C[C@]13CN4CCCC/C=C\CC[C@](O)(C=C(c5nccc6c5[nH]c5ccccc56)[C@@H]1CC4)[C@H]23 [32,33-DIHYDRO-31-HYDROXYMANZAMINE A], which MIC (Staphylococcus aureus) is on record?
Answer: 50 µg/mL (≈ 88.2 µM)

Question: And the IC50 [1]?
Answer: > 150 µM

Question: What about the MIC (Bacillus spizizenii) of the same compound?
Answer: 25 µg/mL (≈ 44.1 µM)

Question: And the CC50 (A549)?
Answer: 8.2 µM

Question: And the MIC (Escherichia coli)?
Answer: > 100 µg/mL

Question: And the MIC (Proteus hauseri)?
Answer: 100 µg/mL (≈ 176 µM)

Question: And the MIC (Salmonella typhimurium)?
Answer: 1.6 µg/mL (≈ 2.82 µM)

Question: And the IC50 (Sortase A)?
Answer: > 150 µM

Question: And the IC50 [2]?
Answer: 68 µM

Question: What about the CC50 (K562) of the same compound?
Answer: 8.4 µM

Question: And the MIC (Kocuria rhizophila)?
Answer: 13 µg/mL (≈ 22.9 µM)

Question: With Cl.[O-][n+]1ccc2c([nH]c3ccccc32)c1C1=C[C@@]2(O)CC/C=C\CCCCN3CC[C@@H]1[C@]1(CC/C=C\CCCCN[C@H]12)C3 as the compound, how does the MIC (Staphylococcus aureus) read?
Answer: 32 µg/mL

Question: And the IC50 [1]?
Answer: > 150 µM

Question: What about the MIC (Bacillus spizizenii) of the same compound?
Answer: > 100 µg/mL

Question: And the CC50 (A549)?
Answer: 4.7 µM

Question: And the MIC (Escherichia coli)?
Answer: > 100 µg/mL

Question: What about the MIC (Proteus hauseri) of the same compound?
Answer: > 100 µg/mL

Question: What about the MIC (Salmonella typhimurium) of the same compound?
Answer: 32 µg/mL

Question: And the IC50 (Sortase A)?
Answer: 81 µM

Question: And the IC50 [2]?
Answer: 26 µM

Question: What about the CC50 (K562) of the same compound?
Answer: 8.1 µM

Question: What about the MIC (Kocuria rhizophila) of the same compound?
Answer: > 100 µg/mL
